Experimental data published in patent US20220409743A1, “VIRUS-MIMETIC NANOPARTICLES” (UNIVERSITÄT REGENSBURG, priority 2019, published 2022).

Assays:
sGC = target: T1, sGC (Rattus norvegicus, UniProt P20595); experiment: Western Blot of sGC levels in mesangial cells; type: cell-based; conditions: 24 h incubation; free CCG 2 μM, NPs 0.2 μM CCG
T1 construct: endogenous in cells; host or cells: mesangial cells
T1 sequence (P20595 1-619): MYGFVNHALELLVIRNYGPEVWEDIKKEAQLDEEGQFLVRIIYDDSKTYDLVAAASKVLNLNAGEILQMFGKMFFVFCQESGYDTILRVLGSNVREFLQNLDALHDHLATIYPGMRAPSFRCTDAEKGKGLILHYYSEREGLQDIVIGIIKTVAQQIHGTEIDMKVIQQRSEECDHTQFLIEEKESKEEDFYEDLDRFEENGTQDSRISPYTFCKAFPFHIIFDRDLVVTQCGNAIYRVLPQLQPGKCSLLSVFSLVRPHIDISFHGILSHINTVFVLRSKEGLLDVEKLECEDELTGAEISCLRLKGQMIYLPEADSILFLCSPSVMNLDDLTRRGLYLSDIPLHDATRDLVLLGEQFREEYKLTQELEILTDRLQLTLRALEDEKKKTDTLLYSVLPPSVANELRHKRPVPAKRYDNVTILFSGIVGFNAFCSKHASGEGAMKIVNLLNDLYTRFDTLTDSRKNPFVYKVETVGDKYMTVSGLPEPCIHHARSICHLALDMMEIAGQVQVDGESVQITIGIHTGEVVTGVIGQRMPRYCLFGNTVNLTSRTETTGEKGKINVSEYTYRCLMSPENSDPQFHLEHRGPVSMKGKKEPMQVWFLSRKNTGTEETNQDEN
T1 sequence (P19686 1-690 partner): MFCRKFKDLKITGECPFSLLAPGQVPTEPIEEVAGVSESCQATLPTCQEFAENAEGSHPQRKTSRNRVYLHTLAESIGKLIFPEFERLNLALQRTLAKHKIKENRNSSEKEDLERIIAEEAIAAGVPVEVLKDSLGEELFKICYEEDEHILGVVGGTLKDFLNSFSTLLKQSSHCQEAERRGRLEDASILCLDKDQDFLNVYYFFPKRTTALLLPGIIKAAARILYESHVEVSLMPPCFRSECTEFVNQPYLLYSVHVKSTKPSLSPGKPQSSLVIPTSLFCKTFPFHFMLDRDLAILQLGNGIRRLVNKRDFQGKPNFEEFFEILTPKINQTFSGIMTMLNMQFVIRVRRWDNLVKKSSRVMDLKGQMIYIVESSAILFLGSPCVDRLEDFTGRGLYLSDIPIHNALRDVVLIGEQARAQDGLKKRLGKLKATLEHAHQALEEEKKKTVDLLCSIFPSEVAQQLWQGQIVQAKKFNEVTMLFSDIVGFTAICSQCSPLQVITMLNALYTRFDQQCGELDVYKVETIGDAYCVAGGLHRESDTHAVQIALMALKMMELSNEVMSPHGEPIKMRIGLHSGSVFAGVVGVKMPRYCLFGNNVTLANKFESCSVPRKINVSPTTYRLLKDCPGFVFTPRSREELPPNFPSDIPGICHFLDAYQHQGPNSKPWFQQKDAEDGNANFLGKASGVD
Protocol: (§1) In the inventors' experimental set-up, CCG was initially encapsulated in hetero-multivalent EXPcRGD NPs. Resulting NPs carried approximately 500-700 CCG molecules per NP (data not shown). In all following experiments, the administration of free cinaciguat at a concentration of 2 μM was compared to CCG-loaded EXPcRGD NPs at a concentration of approximately 0.5 nM (equaling 0.2 μM of CCG) and drug-free EXPcRGD control NPs (FIG. 30). […] CCG-carrying NPs however carried only 10% of respective CCG amount to test a possible drug delivery effect.
To assess the effect of CCG-loaded EXPcRGD NPs on target sGC, mesangial cells were initially incubated for 24 h and protein quantity was assessed using Western Blot analysis.

PGK1-α = experiment: Western Blot of VASP phosphorylation (PGK1-α activity); type: cell-based; conditions: free CCG 2 μM, NPs 0.2 μM CCG
Protocol: To assess PGK1-αactivity, phosphorylation of its substrate vasodilator-stimulated phosphoprotein (VASP) was assessed. […] (n=3; ****P<0.0001; ***P<0.001; **P<0.01; *P<0.05).
as §1

mesangial cells = experiment: Proliferation assay of TGF-β stimulated mesangial cells; type: cell-based; conditions: 4 h pre-incubation, 10 ng mL^−1 TGF-β 48 h
Protocol: (§2) Finally, the anti-fibrotic and anti-proliferative potential of a NP-assisted CCG delivery was analyzed. In that regard, mesangial cells were initially incubated for 4 h either with free CCG, CCG-loaded EXPcRGD NPs or control NPs without encapsulated drug. After 4 h, 10 ng mL^−1 of transforming growth factor β (TGF-β) were added for 48 h to induce a fibrotic and hyperproliferative remodeling.

α-SMA = experiment: Western Blot / LSM of fibrosis marker α-SMA after TGF-β; type: cell-based; conditions: 4 h pre-incubation, 10 ng mL^−1 TGF-β 48 h
Protocol: as §2

Collagen I = experiment: Western Blot of fibrosis marker Collagen I after TGF-β; type: cell-based; conditions: 4 h pre-incubation, 10 ng mL^−1 TGF-β 48 h
Protocol: as §2

AT1R = target: T2, AT1R (Rattus norvegicus, UniProt P25095); experiment: Intracellular calcium measurement (Fura-2): ligand affinity and particle avidity for the AT1R; conditions: read-out: IC50, ligand affinity for the AT1R; free ligand; rMCs incubated 30 min prior to stimulation with Ang-II
T2 sequence (P25095 1-359): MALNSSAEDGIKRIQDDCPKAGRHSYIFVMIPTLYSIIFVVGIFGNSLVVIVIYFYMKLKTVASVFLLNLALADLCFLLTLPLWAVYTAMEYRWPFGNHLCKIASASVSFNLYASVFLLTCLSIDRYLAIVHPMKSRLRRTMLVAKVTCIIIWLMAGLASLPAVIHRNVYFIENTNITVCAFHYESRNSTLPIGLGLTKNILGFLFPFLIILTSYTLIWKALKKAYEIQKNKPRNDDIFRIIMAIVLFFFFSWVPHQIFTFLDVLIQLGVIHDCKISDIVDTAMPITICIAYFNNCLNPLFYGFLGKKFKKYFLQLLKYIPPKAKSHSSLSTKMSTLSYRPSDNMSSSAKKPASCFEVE
Protocol: In order to assess the AT1R interaction of the different NP formulations a ratiometric Fura-2 Ca^2+ chelator method was used as previously described [1, 3] using AT1R positive rMCs. For that purpose, rMCs were seeded in T-150 flasks (Corning) and incubated until confluent. […] Cells were incubated for 1 hour, light protected, with gentle agitation (50 rpm). Afterwards, the cell suspension was washed with DPBS by centrifugation (2×, 200 g, 5 min, RT), and resuspended in Leibovitz medium supplemented with 2.5 mM Probenecid at a count of 2 million cells/mL. […] To determine the kinetics of the AT1R interaction (FIG. 3D) the same procedure was used, but the samples were incubated for different time periods (from 5 to 320min) with the cells. The maximal and minimal signal ratio, was determined by stimulating the cells with 0.1% Triton-X 100 or 0.1% Triton-X 100 with 45 mM ethylene glycol-bis(2-aminoethylether)-N,N,N′,N′-tetraacetic acid (EGTA), respectively.

Compound | sGC levels (sGC) | P-VASP/VASP ratio (PGK1-α) | Effect on TGF-β induced hyperproliferation (mesangial cells) | α-SMA levels compared to the TGF-β control (α-SMA) | Collagen I levels compared to the TGF-β control (Collagen I) | IC50 (AT1R) [nM]
O=C(O)CCCCN(CCc1ccccc1OCc1ccc(CCc2ccccc2)cc1)Cc1ccc(C(=O)O)cc1 [CCG, Cinaciguat] | substantial increase in sGC levels | considerable increase in P-VASP/VASP ratio | considerably decreased this effect | drastic reduction | drastic reduction | –
angiotensin-I (DRVYIHPFHL; Angiotensin-1; UniProt P01019 25-34, looked up) [Ang-I] | – | – | – | – | – | 900 ± 600
